In PubChem BioAssay AID179 (DTP/NCI, 2004):
Where “and” joins values, the source holds several entries; their conditions need not be identical. Equal entries are not always repeated. Calls of active or inactive are those of the source.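 Rule for the calls: active = compounds giving half or more protection of infected cells from virus-caused growth loss, again on retest; inactive = the rest.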 Where a SMILES comes first, the peptide text is derived from it. The star is where a group is joined. Boc = CC(C)(C)OC(=O)*

System: CEM cells HIV-1 protection, formazan growth assay
Assay: NCI AIDS Antiviral Assay
Conditions: for IC50: measured here: growth of uninfected CEM cells
Summary of the method: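 Human CEM cells, uninfected and HIV-1-infected, exposed to five drug concentrations; growth measured by soluble formazan assay and scored as percent protection from infection, with protecting compounds retested.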

| Structure (SMILES) | EC50 | IC50 | outcome |
| --- | --- | --- | --- |
| CCCCCCCCCCCCCCCCCCNc1nc(=O)n(C2CC(OC(C)=O)C(COP(=O)(O)OCC3CCC(n4ccc(NC(=O)CCCCCCCCCCCCCCC)nc4=O)O3)O2)cc1F (stereo not drawn) | 10 µM | 44.7 µM | – |
| COc1cc(C(=O)CBr)c(OC)cc1C | > 200 µM | > 200 µM | – |
| O=C1CSC2=NC3=C(COC/C3=C\c3ccc(F)cc3)C(c3ccc(F)cc3)N12 (stereo not drawn) | – | – | inactive |
| N#Cc1c(Sc2ccccc2N)cccc1Sc1ccccc1N | > 200 µM | > 200 µM | – |
| OC12c3ccccc3C1CCCCCCCCCC21OCCO1 (stereo not drawn) | – | – | inactive |
| Cc1ccc(N2COc3ccc4ccccc4c3C2)cc1 | > 200 µM | 26.3 µM | – |
| O=C1C(CN(Cc2ccccc2)Cc2ccccc2)CCCC1CN(Cc1ccccc1)Cc1ccccc1 (stereo not drawn) | > 26.3 µM | > 26.3 µM | inactive |
| Cn1cc2c(n1)c(N/N=C/c1ccccc1)nn1nnnc21 | > 89.1 µM | > 89.1 µM | – |
| CCOc1ccccc1N=Nc1ccc2oc(=O)c(C(=O)Nc3cccc(C)c3)cc2c1 | > 43.7 µM | > 43.7 µM | – |
| Cc1ccc(S(=O)(=O)N/N=C(/CC(=O)c2c(C)n([O-])c3ccccc3[n+]2=O)C(=O)Nc2ccccc2C)cc1 | > 33.1 µM | > 33.1 µM | – |
| O=C(SSC(=O)c1ccccc1)c1ccccc1 | > 200 µM | 22.4 µM | – |
| Nc1ccc(C2c3ccccc3Oc3ccccc32)cc1 | > 200 µM | 30.9 µM | – |
| CC1(C)Oc2ccc3c(=O)cc(-c4cccs4)oc3c2C1C(=O)O (stereo not drawn) | > 200 µM | > 200 µM | – |
| O=Cc1ccccc1CCn1c(=O)c2cc3c(=O)n(CCc4ccccc4C=O)c(=O)c3cc2c1=O | > 10.7 µM | > 10.7 µM | – |
| COc1ccc(/C=C2\CCCC(CN(C)C)C2=O)cc1 (stereo not drawn) | > 200 µM | 1.02 µM | – |
| Cc1cc2c(c(C(=O)NCC(=O)N[C@@H](C)C(=O)OCc3ccccc3)c1)Oc1c(cc(C)cc1C(=O)NCC(=O)N[C@@H](C)C(=O)OCc1ccccc1)S2 | > 200 µM | 7.76 µM | – |
| CC(NC(=O)C1CCCN1C(=O)CNC(=O)OC(C)(C)C)C(=O)O (stereo not drawn) (Boc-Gly-Pro-Ala-OH; configuration not given here) | > 200 µM | > 200 µM | – |
| C1OCN2CSCC12 (stereo not drawn) | > 1910 µM | 110 µM | – |
| C#CCN(Cc1ccc2nc(-c3ccccc3)c(N)nc2c1)c1cc(OC)c(OC)c(OC)c1 | > 21.9 µM | > 21.9 µM | – |
| COc1c(-c2cc(C)c(Cl)c(=O)[nH]2)c(O)c(OC)c2occc12 | > 200 µM | 110 µM | – |
| CCCCCCCCCCCc1nnc(N)o1 | – | – | inactive |
| Cc1ccc(-c2n[nH]c(=O)n2N)cc1 | > 200 µM | > 200 µM | – |

| Structure (SMILES) | EC50 | IC50 | outcome |
| --- | --- | --- | --- |
| O=C(O)Cc1cc(=O)[nH]c2c1/C(=N/O)CCC2 | – | – | inactive |
| NS(=O)(=O)c1nnc(/N=C(/CCC(=O)O)C(=O)O)s1 | > 200 µM | > 200 µM | – |
| CC1(C)CC(=O)c2c(nc3ccc4ccccc4c3c2-c2ccc(NC(=O)CCC(=O)Nc3ccc(-c4c5c(nc6ccc7ccccc7c46)CC(C)(C)CC5=O)cc3)cc2)C1 | > 100 µM | > 100 µM | – |
| C=C1[C@@H]2O[C@@H]3CC(=O)[C@@H](O)[C@]2(C(=O)N1OC)[C@H]3/C=C/C | > 115 µM | > 115 µM | – |
| O=C1C(=C2CCCC2)CC/C1=C1/SS/C(=C2/CCC(=C3CCCC3)C2=O)S1 | > 200 µM | 120 µM | – |
| C#Cc1cccc(N2C(=O)CC(=P(c3ccccc3)(c3ccccc3)c3ccccc3)C2=O)c1 | > 11.2 µM | > 11.2 µM | – |
| C1CNCCNCCNCCN1 | – | – | inactive |
| COc1ccc(C(=C(c2ccc(OC)cc2)c2ccc(OC)cc2)c2ccc(OC)cc2)cc1 | > 100 µM | 46.8 µM | – |
| Cn1cccnc1=O | > 200 µM | > 200 µM | – |
| C=CC(=O)NC(N)=NC#N | > 1820 µM | 60.3 µM | – |
| CSc1cc(Cl)c(C(=O)Nc2ccccc2)cc1S(=O)(=O)n1cc[nH]c1=O | > 200 µM | > 200 µM | – |
| CC1(C)OC(=O)C(=Cc2ccccc2Cl)C(=O)O1 | > 490 µM | 2.45 µM | – |
| CCOC(=O)C(Cc1cn(S(=O)(=O)c2ccc(C)cc2)cn1)P(=O)(OCC)OCC (stereo not drawn) | > 200 µM | > 200 µM | – |
| CS(=O)(=O)SCCCS(=O)(=O)O | > 912 µM | > 912 µM | – |
| CC1=C(Br)C(c2ccccc2)=Nc2ccccc2N1 | > 200 µM | 33.1 µM | – |
| CN1CCCC1c1cccnc1 (stereo not drawn) | 77.6 µM | > 200 µM | – |
| O=C(O)C(CS(=O)(=O)O)Nc1ccc([N+](=O)[O-])cc1[N+](=O)[O-] (stereo not drawn) | > 692 µM | > 692 µM | – |
| O=C(NN=C1CCN(Cc2ccccc2)CC1)C(O)(c1ccccc1)c1ccccc1 | > 200 µM | > 200 µM | – |
| COc1cc2c(cc1OC)C(=O)/C(=C/c1cc(OC)c(OC)c(OC)c1)C2 | > 200 µM | 162 µM | – |
| CC(C)/C(Cl)=N\OC(NC(=O)P(=O)(c1ccccc1)c1ccccc1)(C(F)(F)F)C(F)(F)F | > 200 µM | 10.5 µM | – |
| CCc1cccc(C)c1NC(=O)C1=C(C)NC(C)=C(C(=O)Nc2c(C)cccc2CC)C1c1ccc([N+](=O)[O-])cc1 | > 12.9 µM | > 12.9 µM | – |
| CC(C)(C)C1CCC2(CC1)CCN(N1CCCCCC1)CC2 | > 100 µM | 91.2 µM | – |

| Structure (SMILES) | EC50 | IC50 | outcome |
| --- | --- | --- | --- |
| COC(=O)N1CCC(Sc2ccccc2)C2(CCOC(=O)c3ccccc3)CCC(O)C12 (stereo not drawn) | > 40.7 µM | > 40.7 µM | – |
| CCOC(=O)c1cc2c(nc1NCc1ccccc1)C(=O)CCCC2 | > 200 µM | 19.1 µM | – |
| CC(=O)/C(=C\c1ccccc1O)C(=O)Nc1ccccc1C | > 33.9 µM | 22.4 µM | – |
| CCCCCCCCCCCCSSSCCCCCCCCCCCC | > 200 µM | > 200 µM | – |
| Cc1cccc(C)c1NC(=O)C(=O)CC(=O)c1sc(Nc2c(C)cccc2C)nc1C | > 200 µM | > 200 µM | – |
| CNC(=O)CNC(=O)C(Cc1ccc(NC(=O)CCCCC(C)=O)cc1)NC(=O)C(CCC(=O)OCc1ccccc1)NC(=O)OC(C)(C)C (stereo not drawn) | > 200 µM | > 200 µM | – |
| CNC(=O)Oc1ccc(C(=O)OCCO)cc1 | > 200 µM | 95.5 µM | – |
| COc1cc2oc(=O)cc(C)c2c(OC)c1O | – | – | inactive |
| O=C(c1nc2ccc(Cl)cc2[nH]c1=O)C(O)c1ccco1 (stereo not drawn) | > 8.13 µM | 2.57 µM | – |
| COP(=O)(OC)OC=C(Cl)Cl | > 200 µM | > 200 µM | – |
| O=C(CCc1nnc2s/c(=C\c3ccccc3)c(=O)n12)Nc1cc(Cl)ccc1Cl | > 11.7 µM | > 11.7 µM | – |
| CC1(Br)C(=O)NC(=O)N([C@H]2C[C@H](O)[C@@H](CO)O2)C1N=[N+]=[N-] (stereo partly drawn) | 145 µM | > 200 µM | – |
| O=S(=O)(O)c1ccc(O)c(N=Nc2ccc(S(=O)(=O)c3ccc(N=Nc4cc(S(=O)(=O)O)ccc4O)cc3)cc2)c1 | > 100 µM | > 100 µM | – |
| O=[N+]([O-])c1ccc(C2=NOC(c3ccccc3F)N2C23CC4CC(CC(C4)C2)C3)cc1 (stereo not drawn) | 195 µM | > 200 µM | – |
| O=c1oc2c3ccc4ccccc4c3n(CCN3CCCCC3)c2c2ccccc12 | > 8.71 µM | 6.76 µM | – |
| CN(C)CC/C(=N\Nc1c(Cl)cccc1Cl)c1ccccc1 | – | – | inactive |
| CC1(C)CCc2cc3c(cc2O1)OCC1c2cc4c(cc2OC31)OCO4 (stereo not drawn) | – | – | inactive |
| COc1ccc(C(c2c(O)c3ccccc3oc2=O)N2CCCC2)cc1 (stereo not drawn) | > 200 µM | 123 µM | – |
| Cc1[nH]c(=O)[nH]c(=O)c1N(CCF)CCCl | > 1000 µM | 89.1 µM | – |
| CCN(CC)CCOc1cccc(/C=C(\C#N)c2ccccc2)c1 | > 100 µM | 7.76 µM | – |
| C[C@]12OC(=O)[C@]3(O)CC[C@H]4[C@@H](C[C@@H](O)[C@@]5(Cl)CC=CC(=O)[C@]45C)[C@]45OCC6C(=O)O[C@@H]1C[C@@]6(C)[C@H](C4=O)[C@@]32O5 (stereo partly drawn) | > 2 µM | 0.871 µM | – |
| CC(=O)OC[C@]1(O)CC[C@@]23CC1C[C@@H]2CCC1C(C)(C)CCC[C@@]13C (stereo partly drawn) | > 20.9 µM | > 20.9 µM | – |

| Structure (SMILES) | EC50 | IC50 | outcome |
| --- | --- | --- | --- |
| OC(c1ccc2c(c1)OCO2)c1ccc2c(c1)OCO2 | > 200 µM | 178 µM | – |
| CC(=O)OC(CC1(C)C(C)CCC23COC(=O)C2=CCCC31)C1=CC(=O)OC1O (stereo not drawn) | > 447 µM | > 447 µM | – |
| COc1ccc2oc(OC)c(CC=C(C)C)c(=O)c2c1C | > 200 µM | 141 µM | – |
| Cc1oc2ccccc2c(=O)c1C | – | – | inactive |
| NCCCCN(CCCN)C(=O)c1ccccc1 | – | – | inactive |
| COc1ccccc1S(=O)Nc1ccccc1 (stereo not drawn) | > 200 µM | > 200 µM | – |
| [Cu+2].[O-]/N=C/c1ccc(O)c(O)c1[O-].[O-]/N=C/c1ccc(O)c(O)c1[O-] | – | – | inactive |
| N#CC(C#N)=C1C(=O)NC(N)=C1C#N | > 200 µM | > 200 µM | – |
| O=c1ccn([C@@H]2C[C@H]2CO)c(=O)[nH]1 | – | – | inactive |
| CC1OC(CC(=O)O)CC2=C1C(=O)c1c(O)cccc1C2=O (stereo not drawn) | > 120 µM | 0.0447 µM | – |
| C=CCCCC1CCCNC1=S (stereo not drawn) | > 275 µM | > 275 µM | – |
| CCOc1ccccc1N=Nc1c(-c2ccccc2)nn(C(=O)CC(=O)Nc2cccc(C)c2)c1-c1ccccc1 | > 25.1 µM | > 25.1 µM | – |
| O=NC1C(Cl)C2CC1C1COCC21 (stereo not drawn) | > 1230 µM | > 1230 µM | – |
| CCOC(OCC)N1C(=O)C2(C(OCC)OCC)CC3C(OC(=O)N3N)c3cccc1c32 (stereo not drawn) | – | – | inactive |
| CCCCCCCCCCOCCC(=O)OCC1OC(n2cc(C)c(=O)[nH]c2=O)CC1N=[N+]=[N-] (stereo not drawn) | – | 33.9 µM | active |
| CN(NC(=O)/C(=C/c1ccc(O)cc1)NC(=O)c1ccccc1)c1ccnc2cc(Cl)ccc12 | > 200 µM | 10.2 µM | – |
| O=C(CCCN1CCC(O)(c2ccc(Cl)cc2)CC1)c1ccc(F)cc1 | > 132 µM | – | – |
| Cc1ccccc1N=NC(C(=O)c1ccccc1)C(=O)c1ccccc1 | > 20.9 µM | 14.8 µM | – |
| O=C(O)Cc1ccc(SSc2ccc(CC(=O)O)cc2)cc1 | 46.8 µM and 129 µM | 1120 µM and > 200 µM | – |
| CCOc1ccc(NCC(=O)N2CC(=O)Nc3ccccc32)cc1 | > 22.4 µM | > 22.4 µM | – |
| CCC1=CCN(c2ccc(C)cc2)OC1c1ccc(OC)cc1 (stereo not drawn) | > 32.4 µM | > 32.4 µM | – |
| CCOC(=O)c1c(Sc2ccc([N+](=O)[O-])cc2[N+](=O)[O-])nc2c3ccccc3ccn12 | > 200 µM | > 200 µM | – |
